Where two headings read alike, the source gives them in different places.

Common to all, as to assay: Kinase panel profiling at 1 µmol/L (MSA or IMAP), percentage inhibition
Common to all, as to type: biochemical

Assay [1] has as its target T1, panel of 255 wild-type kinases (Homo sapiens, UniProt Q06418).
T1 sequence (Q06418 41-890): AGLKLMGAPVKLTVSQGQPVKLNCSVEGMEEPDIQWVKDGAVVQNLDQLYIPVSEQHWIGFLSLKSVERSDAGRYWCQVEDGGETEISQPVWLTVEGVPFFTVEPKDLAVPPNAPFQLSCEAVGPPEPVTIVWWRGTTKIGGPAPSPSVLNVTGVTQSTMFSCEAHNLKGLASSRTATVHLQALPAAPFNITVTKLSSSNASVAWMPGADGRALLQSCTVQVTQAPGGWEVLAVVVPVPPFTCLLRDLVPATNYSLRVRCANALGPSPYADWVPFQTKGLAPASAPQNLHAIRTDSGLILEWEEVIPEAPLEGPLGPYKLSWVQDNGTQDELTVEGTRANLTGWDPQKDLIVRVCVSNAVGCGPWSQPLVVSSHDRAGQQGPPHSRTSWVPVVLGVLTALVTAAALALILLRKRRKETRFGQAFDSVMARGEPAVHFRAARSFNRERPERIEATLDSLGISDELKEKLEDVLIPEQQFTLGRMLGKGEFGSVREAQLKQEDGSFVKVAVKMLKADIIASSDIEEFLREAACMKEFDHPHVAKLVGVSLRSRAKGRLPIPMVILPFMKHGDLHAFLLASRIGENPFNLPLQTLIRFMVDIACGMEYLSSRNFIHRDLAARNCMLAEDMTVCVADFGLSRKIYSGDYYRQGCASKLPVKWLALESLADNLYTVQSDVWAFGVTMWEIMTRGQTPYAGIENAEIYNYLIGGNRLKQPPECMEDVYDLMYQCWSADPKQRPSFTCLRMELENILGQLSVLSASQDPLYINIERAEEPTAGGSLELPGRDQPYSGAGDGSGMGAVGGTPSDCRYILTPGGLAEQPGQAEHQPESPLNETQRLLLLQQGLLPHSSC
The following applies: read-out: %-inhibition at 1 µmol/L, TYRO3.

Assay [2] addresses T2, panel of 255 wild-type kinases (Homo sapiens, UniProt Q9NZJ5).
T2 sequence (Q9NZJ5 30-1116): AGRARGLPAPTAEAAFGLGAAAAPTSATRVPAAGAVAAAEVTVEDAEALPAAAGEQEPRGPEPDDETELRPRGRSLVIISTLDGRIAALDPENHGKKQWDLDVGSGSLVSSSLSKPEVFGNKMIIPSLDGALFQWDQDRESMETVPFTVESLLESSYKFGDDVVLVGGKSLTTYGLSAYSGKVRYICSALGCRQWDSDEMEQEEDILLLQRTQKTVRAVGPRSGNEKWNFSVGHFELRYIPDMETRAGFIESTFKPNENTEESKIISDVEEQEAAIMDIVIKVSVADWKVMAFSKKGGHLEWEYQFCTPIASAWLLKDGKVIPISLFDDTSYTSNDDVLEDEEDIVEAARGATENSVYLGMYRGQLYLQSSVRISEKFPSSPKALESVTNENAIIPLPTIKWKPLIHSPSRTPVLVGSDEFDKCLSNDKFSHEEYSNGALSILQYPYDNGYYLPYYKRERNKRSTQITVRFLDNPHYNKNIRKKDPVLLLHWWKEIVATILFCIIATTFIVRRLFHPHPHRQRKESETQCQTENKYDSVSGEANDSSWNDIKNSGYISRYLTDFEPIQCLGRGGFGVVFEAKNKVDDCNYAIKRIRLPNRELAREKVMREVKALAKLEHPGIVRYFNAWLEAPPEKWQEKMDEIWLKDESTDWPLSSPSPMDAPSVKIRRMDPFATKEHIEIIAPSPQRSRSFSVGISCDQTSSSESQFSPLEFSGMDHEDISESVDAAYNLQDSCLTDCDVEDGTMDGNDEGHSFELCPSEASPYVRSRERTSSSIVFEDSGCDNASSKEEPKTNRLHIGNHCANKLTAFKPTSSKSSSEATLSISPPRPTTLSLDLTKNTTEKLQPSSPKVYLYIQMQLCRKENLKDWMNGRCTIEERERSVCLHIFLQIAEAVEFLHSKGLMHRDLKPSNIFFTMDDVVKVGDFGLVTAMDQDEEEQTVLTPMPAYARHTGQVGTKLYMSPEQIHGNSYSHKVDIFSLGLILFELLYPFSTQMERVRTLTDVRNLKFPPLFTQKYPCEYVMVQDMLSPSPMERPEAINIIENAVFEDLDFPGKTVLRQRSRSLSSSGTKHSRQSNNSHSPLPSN
The conditions noted are these: read-out: %-inhibition at 1 µmol/L, PEK.

Assay [3] has as its target panel of 255 wild-type kinases (Homo sapiens, UniProt Q05397). The conditions noted are these: read-out: %-inhibition at 1 µmol/L, FAK.
Assay [4] has as its target panel of 255 wild-type kinases (Homo sapiens, UniProt Q13153). The conditions noted are these: read-out: %-inhibition, PAK1.
The target of assay [5] is panel of 255 wild-type kinases (Homo sapiens, UniProt Q14680). The following applies: read-out: %-inhibition, MELK.
Assay [6] addresses panel of 255 wild-type kinases (Homo sapiens, UniProt Q9Y6M4). The conditions noted are these: read-out: %-inhibition at 1 µmol/L, CK1γ3.
Assay [7] addresses panel of 255 wild-type kinases (Homo sapiens, UniProt Q15418). The following applies: read-out: %-inhibition at 1 µmol/L, RSK1.
The target of assay [8] is T3, panel of 255 wild-type kinases (Homo sapiens, UniProt O14965).
T3 sequence (O14965 1-403): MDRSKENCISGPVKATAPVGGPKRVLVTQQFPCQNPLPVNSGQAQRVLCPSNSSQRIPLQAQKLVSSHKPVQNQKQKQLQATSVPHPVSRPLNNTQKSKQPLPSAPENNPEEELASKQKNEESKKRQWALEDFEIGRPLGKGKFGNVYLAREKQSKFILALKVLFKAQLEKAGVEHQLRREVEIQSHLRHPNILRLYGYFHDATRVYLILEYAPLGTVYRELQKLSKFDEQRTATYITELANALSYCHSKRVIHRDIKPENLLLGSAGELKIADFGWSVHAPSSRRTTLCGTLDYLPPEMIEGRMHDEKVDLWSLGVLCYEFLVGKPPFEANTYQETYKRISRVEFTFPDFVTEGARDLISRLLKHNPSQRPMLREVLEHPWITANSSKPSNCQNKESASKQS

Where [9] appears, read: kinase TYRO3, 1 µmol/L single concentration.
Setting [10] is: kinase PEK, 1 µmol/L single concentration.
Setting [11] is: kinase FAK, 1 µmol/L single concentration.
Setting [12] is: PAK1, 1 µmol/L single concentration.
The mark [13] stands for this setting: MELK, 1 µmol/L single concentration.
Setting [14] is: kinase CK1γ3, 1 µmol/L single concentration.
Setting [15] is: kinase RSK1, 1 µmol/L single concentration.
[16] abbreviates: AurA kinase assay, 1 µmol/L single concentration, read-out: %-inhibition AurA.
Setting [17] is: AurA/TPX2 kinase assay, 1 µmol/L single concentration, read-out: %-inhibition AurA/TPX2.

Consider `Cn1cc(-c2cc3c(N4CCN(c5ncc([C@@](C)(N)c6ccc(F)cc6)cn5)CC4)ncnn3c2)cn1` [avapritinib], for which the inhibition at 1 µM in assay [1] (setting [9]) was 72%; in assay [2] (setting [10]), 1.51%; in assay [3] (setting [11]), -2.5%; in assay [4] (setting [12]), 0.845%; in assay [5] (setting [13]) it was 9%; in assay [6] (setting [14]) it was 10%. Moreover, the inhibition at 1 µM in assay [7] (setting [15]) was -7%; in assay [8] (setting [16]) it was 4.62%; in assay [8] (setting [17]) it was 10%.
In the case of `C[C@H](Nc1ncnc2nc[nH]c12)c1cc2cccc(Cl)c2c(=O)n1-c1ccccc1` [duvelisib], the inhibition at 1 µM is 6% in assay [1] (setting [9]); 5.65% in assay [2] (setting [10]); 4% in assay [3] (setting [11]); -0.68% in assay [4] (setting [12]); 2.43% in assay [5] (setting [13]); -0.689% in assay [6] (setting [14]). Besides, the inhibition at 1 µM was -0.755% in assay [7] (setting [15]), -4.54% in assay [8] (setting [16]) and 1.81% in assay [8] (setting [17]).
For `COc1cc2ncnc(Nc3ccc(F)c(Cl)c3)c2cc1NC(=O)/C=C/CN1CCCCC1` [dacomitinib], the inhibition at 1 µM is 27% in assay [1] (setting [9]); 2.82% in assay [2] (setting [10]); -0.575% in assay [3] (setting [11]); 0.38% in assay [4] (setting [12]); 15% in assay [5] (setting [13]); -23% in assay [6] (setting [14]). The inhibition at 1 µM was 4.37% in assay [7] (setting [15]), -1.72% in assay [8] (setting [16]) and 1% in assay [8] (setting [17]).
`CCN1CCN(c2ccc(Nc3cc(N(C)C(=O)Nc4c(Cl)c(OC)cc(OC)c4Cl)ncn3)cc2)CC1` [infigratinib]: the inhibition at 1 µM in assay [1] (setting [9]) is 10%; in assay [2] (setting [10]), 49%; in assay [3] (setting [11]), -4.48%; in assay [4] (setting [12]), 5%; in assay [5] (setting [13]), -2%; in assay [6] (setting [14]), -1.16%. The values for the inhibition at 1 µM in assay [7] (setting [15]), in assay [8] (setting [16]) and in assay [8] (setting [17]) were -3%, -5.38% and -10%, respectively.
As to `Cn1cnc2c(F)c(Nc3ccc(Br)cc3Cl)c(C(=O)NOCCO)cc21` [selumetinib], the inhibition at 1 µM is 11% in assay [1] (setting [9]); -0.188% in assay [2] (setting [10]); -1.9% in assay [3] (setting [11]); 7% in assay [4] (setting [12]); -2.6% in assay [5] (setting [13]); -1% in assay [6] (setting [14]). For the same molecule, the figures for the inhibition at 1 µM in assay [7] (setting [15]), in assay [8] (setting [16]) and in assay [8] (setting [17]) were -8%, -5.67% and -8%, respectively.
On to `CNC(=O)c1ccc(-c2cnc3ncc(Cc4ccc5ncccc5c4)n3n2)cc1F` [capmatinib], for which the inhibition at 1 µM was 7% in assay [1]; 4.25% in assay [2]; -6% in assay [3]; 4.66% in assay [4]; -4% in assay [5]; -1.65% in assay [6]. Besides, the inhibition at 1 µM in assay [7] was 1.52%; in assay [8] (read-out: %-inhibition AurA) it was 3.78%; in assay [8] (read-out: %-inhibition AurA/TPX2), -6%.
Regarding `COC(=O)N[C@@H](C)CNc1nccc(-c2cn(C(C)C)nc2-c2cc(Cl)cc(NS(C)(=O)=O)c2F)n1` [encorafenib], the inhibition at 1 µM in assay [1] (setting [9]) was 8%; in assay [2] (setting [10]), 9%; in assay [3] (setting [11]), -3%; in assay [4] (setting [12]), 12%; in assay [5] (setting [13]), 4.48%; in assay [6] (setting [14]) it was 10%. In addition, the figures for the inhibition at 1 µM in assay [7] (setting [15]), in assay [8] (setting [16]) and in assay [8] (setting [17]) were -2%, 0.211% and -3.31%, respectively.
On to `CN1CCN(c2ccc(C(=O)Nc3n[nH]c4ccc(Cc5cc(F)cc(F)c5)cc34)c(NC3CCOCC3)c2)CC1` [entrectinib], for which the inhibition at 1 µM in assay [1] (setting [9]) was 20%; in assay [2] (setting [10]), 0.561%; in assay [4] (setting [12]), -10%; in assay [6] (setting [14]), 0.879%; in assay [8] (setting [16]), 81%; in assay [8] (setting [17]), 75%.
Turning to `C[C@H]1Oc2cc(cnc2N)-c2c(nn(C)c2C#N)CN(C)C(=O)c2ccc(F)cc21` [lorlatinib], the inhibition at 1 µM in assay [1] (setting [9]) is 9%; in assay [2] (setting [10]) it was -1.65%; in assay [4] (setting [12]), -2.12%; in assay [5] (setting [13]), 4%; in assay [6] (setting [14]), -1%; in assay [7] (setting [15]), 2.31%. The results for the inhibition at 1 µM in assay [8] (setting [16]) and in assay [8] (setting [17]) were 21% and 29%, respectively.
Take `CCc1nc(C(N)=O)c(Nc2ccc(N3CCC(N4CCN(C)CC4)CC3)c(OC)c2)nc1NC1CCOCC1` [gilteritinib]: the inhibition at 1 µM in assay [1] (setting [9]) amounted to 93%; in assay [3], 81%; in assay [4] (setting [12]), 4%; in assay [5] (setting [13]), 75%; in assay [6] (setting [14]) it was 11%; in assay [7] (setting [15]), 54%. Besides, the inhibition at 1 µM in assay [8] (setting [16]) amounted to 80%; in assay [8] (setting [17]) it was 71%.

The record behind these values is publication PMC9516332 (Frontiers in Oncology, 2022).
